Results as given in patent US8598154B2 (Corcept Therapeutics, Inc., priority 2010, dated 2013).

Assays:
[1] = molecular target: T1, Human Recombinant Glucocorticoid Receptor (Homo sapiens, UniProt P04150); assay: Glucocorticoid receptor binding displacement assay with 3H-dexamethasone; details: displacement of 2.5 nM 3H-dexamethasone; Ki from IC50 by Cheng-Prusoff; read-out: GR Binding Ki
T1 construct: This GR was a full-length steroid hormone receptor likely to be associated with heat-shock and other endogenous proteins; host or cells: baculovirus-infected insect cells
T1 sequence (P04150 1-777): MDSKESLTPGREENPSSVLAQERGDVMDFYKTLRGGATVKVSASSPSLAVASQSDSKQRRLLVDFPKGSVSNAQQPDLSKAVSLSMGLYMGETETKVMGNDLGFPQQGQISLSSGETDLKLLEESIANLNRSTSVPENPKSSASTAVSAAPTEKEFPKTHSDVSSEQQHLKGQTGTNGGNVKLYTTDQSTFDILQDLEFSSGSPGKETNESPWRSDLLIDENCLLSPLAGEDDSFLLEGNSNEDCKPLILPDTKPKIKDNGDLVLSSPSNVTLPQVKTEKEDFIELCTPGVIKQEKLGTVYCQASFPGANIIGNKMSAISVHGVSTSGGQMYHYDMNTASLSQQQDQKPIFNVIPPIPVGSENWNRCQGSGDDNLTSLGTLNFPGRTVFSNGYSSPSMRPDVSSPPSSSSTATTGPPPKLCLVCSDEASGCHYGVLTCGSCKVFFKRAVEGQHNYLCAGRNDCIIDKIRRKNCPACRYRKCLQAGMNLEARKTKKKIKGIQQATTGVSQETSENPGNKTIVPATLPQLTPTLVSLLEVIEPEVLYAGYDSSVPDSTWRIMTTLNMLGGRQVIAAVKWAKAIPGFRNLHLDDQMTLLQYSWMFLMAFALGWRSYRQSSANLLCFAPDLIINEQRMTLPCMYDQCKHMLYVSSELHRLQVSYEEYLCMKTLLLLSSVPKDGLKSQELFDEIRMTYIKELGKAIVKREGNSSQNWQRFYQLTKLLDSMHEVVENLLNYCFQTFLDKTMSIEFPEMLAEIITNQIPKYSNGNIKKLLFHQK
Protocol: The source of the receptor was recombinant baculovirus-infected insect cells. This GR was a full-length steroid hormone receptor likely to be associated with heat-shock and other endogenous proteins.
For the Primary Screen, test compounds were tested at 1 μM in duplicate. These compounds were diluted from 10 mM stock in 100% DMSO. After dilution to 100 μM, 5 μl were added to 245 μl assay buffer to obtained 2 μM compound and 2% DMSO.
For the IC50 determinations, test compounds were tested at 6 concentrations in duplicate (concentration range depends on % inhibition binding that was obtained in the Primary Screen). Test compounds were diluted from 10 mM stock in 100% DMSO. The tested solutions were prepared at 2× final assay concentration in 2% DMSO/assay buffer.
All reagents and the assay plate were kept on ice during the addition of reagents. […] After the additions, the incubation mixture was mixed and incubated for 2.5 hrs at 4° C.
After 2.5 hrs incubation, unbound counts were removed with dextran coated charcoal (DCC) as follows: 25 μl of DCC solution (10% DCC in assay buffer) was added to all wells and mixed (total volume 225 μl). The plate was centrifuged at 4000 rpm for 10 minutes at 4° C. 75 μl of the supernatants (i.e.⅓ of total volume) was carefully pipetted into an optiplate. 200 μl of scintillation cocktail were added (Microscint-40, Packard Bioscience. B.V.). The plate was vigorously shaken for approx. 10 minutes and counted on Topcount.
The IC50 values were converted to Ki (the inhibition constant) using the Cheng-Prusoff equation. Test results are presented in Tablel.
Reagents: Assay buffer: 10 mM potassium phosphate buffer pH 7.6 containing 5 mM DTT, 10 mM sodium molybdate, 100 μM EDTA and 0.1% BSA.

[2] = molecular target: T2, glucocorticoid receptors (GR) in SW1353/MMTV-5 cells (Homo sapiens, UniProt P04150); assay: GR functional assay using SW1353/MMTV-5 cells (MMTV-luciferase reporter); assay type: cell-based
T2 construct: contains endogenous glucocorticoid receptors; endogenous in cells; host or cells: SW1353/MMTV-5 (human chondrosarcoma, stably transfected with the pMAMneo-Luc reporter only)
T2 sequence (P04150 1-777): T1 sequence (P04150 1-777)
Protocol: SW1353/MMTV-5 is an adherent human chondrosarcoma cell line that contains endogenous glucocorticoid receptors. It was transfected with a plasmid (pMAMneo-Luc) encoding firefly luciferase located behind a glucocorticoid-responsive element (GRE) derived from a viral promoter (long terminal repeat of mouse mammary tumor virus). A stable cell line SW1353/MMTV-5 was selected with geneticin, which was required to maintain this plasmid.
SW1353/MMTV-5 cells were distributed in 96-well plates and incubated in medium (without geneticin) for 24 hrs (in the absence of CO2).

SMILES	Ki [1]	Ki [2]
CCOC[C@]12Cc3cnn(-c4ccc(F)cc4)c3C=C1CCN(S(=O)(=O)c1ccc(N3CCOCC3)nc1)C2 [Example 1, (R)-4a-Ethoxymethyl-1-(4-fluorophenyl)-6-[[6-(4-morpholinyl)-3-pyridinyl]sulfonyl]-1,4,7,8-tetrahydro-1,2,6-triazacyclopenta[b]naphthalene]	< 0.5 nM	< 10 nM
COC(=O)[C@]12Cc3cnn(-c4ccc(F)cc4)c3C=C1CCN(S(=O)(=O)c1ccc(N3CCOCC3)nc1)C2 [Example 1c, (R)-1-(4-Fluorophenyl)-6-(6-morpholin-4-ylpyridine-3-sulfonyl)-1,4,5,6,7,8-hexahydro-1,2,6-triazacyclopenta[b]naphthalene-4a-carboxylic acid methyl ester]	> 1 nM	> 50 nM
O=S(=O)(c1ccc(N2CCOCC2)nc1)N1CCC2=Cc3c(cnn3-c3ccc(F)cc3)C[C@]2(CO)C1 [Example 1d, [(R)-1-(4-Fluorophenyl)-6-[[6-(4-morpholinyl)-3-pyridinyl]sulfonyl]-1,4,7,8-tetrahydro-1,2,6-triazacyclopenta[b]naphthalen-4a-yl]methanol]	> 1 nM	> 50 nM
CCOC[C@]12Cc3cnn(-c4ccc(F)cc4)c3C=C1CCN(S(=O)(=O)c1cccnc1)C2 [Example 2, (R)-4a-Ethoxymethyl-1-(4-fluorophenyl)-6-[[3-pyridinyl]sulfonyl]-1,4,7,8-tetrahydro-1,2,6-triazacyclopenta[b]naphthalene]	0.5 to 1 nM	10 to 50 nM
CCOC[C@]12Cc3cnn(-c4ccc(F)cc4)c3C=C1CCN(S(=O)(=O)c1cnc3c(c1)OCCN3C)C2 [Example 3]	< 0.5 nM	10 to 50 nM
CCOC[C@]12Cc3cnn(-c4ccc(F)cc4)c3C=C1CCN(S(=O)(=O)c1ccc(N3CCCC3)nc1)C2 [Example 4, (R)-4a-Ethoxymethyl-1-(4-fluorophenyl)-6-[[6-(1-pyrrolidinyl)-3-pyridinyl]sulfonyl]-1,4,7,8-tetrahydro-1,2,6-triazacyclopenta[b]naphthalene]	> 1 nM	10 to 50 nM
COC[C@]12Cc3cnn(-c4ccc(F)cc4)c3C=C1CCN(S(=O)(=O)c1ccc(N3CCCC3)nc1)C2 [Example 5, (R)-1-(4-Fluorophenyl)-4a-methoxymethyl-6-[[6-(1-pyrrolidinyl)-3-pyridinyl]sulfonyl]-1,4,7,8-tetrahydro-1,2,6-triazacyclopenta[b]naphthalene]	0.5 to 1 nM	10 to 50 nM
CCOC[C@]12Cc3cnn(-c4ccc(F)cc4)c3C=C1CCN(S(=O)(=O)c1ccc(N3CCC3)nc1)C2 [Example 6, (R)-6-[[6-(1-Azetidinyl)-3-pyridinyl]sulfonyl]-4a-ethoxymethyl-1-(4-fluorophenyl)-1,4,7,8-tetrahydro-1,2,6-triazacyclopenta[b]naphthalene]	0.5 to 1 nM	10 to 50 nM
CCOC[C@]12Cc3cnn(-c4ccc(F)cc4)c3C=C1CCN(S(=O)(=O)c1ccc(NC)nc1)C2 [Example 7, (R)-4a-Ethoxymethyl-1-(4-fluorophenyl)-6-[[6-methylamino-3-pyridinyl]sulfonyl]-1,4,7,8-tetrahydro-1,2,6-triazacyclopenta[b]naphthalene]	< 0.5 nM	10 to 50 nM
CCOC[C@]12Cc3cnn(-c4ccc(F)cc4)c3C=C1CCN(S(=O)(=O)c1ccc(N(C)C)nc1)C2 [Example 8, (R)-6-[[6-Dimethylamino-3-pyridinyl]sulfonyl]-4a-ethoxymethyl-1-(4-fluorophenyl)-1,4,7,8-tetrahydro-1,2,6-triazacyclopenta[b]naphthalene]	< 0.5 nM	< 10 nM
CNc1ccc(S(=O)(=O)N2CCC3=Cc4c(cnn4-c4ccc(F)cc4)C[C@]3(COC)C2)cn1 [Example 9, (R)-1-(4-Fluorophenyl)-4a-methoxymethyl-6-[[6-methylamino-3-pyridinyl]sulfonyl]-1,4,7,8-tetrahydro-1,2,6-triazacyclopenta[b]naphthalene]	> 1 nM	> 50 nM
COC[C@]12Cc3cnn(-c4ccc(F)cc4)c3C=C1CCN(S(=O)(=O)c1ccc(N(C)C)nc1)C2 [Example 10, (R)-6-[[6-Dimethylamino-3-pyridinyl]sulfonyl]-1-(4-fluorophenyl)-4a-methoxymethyl-1,4,7,8-tetrahydro-1,2,6-triazacyclopenta[b]naphthalene]	0.5 to 1 nM	10 to 50 nM
COC[C@]12Cc3cnn(-c4ccc(F)cc4)c3C=C1CCN(S(=O)(=O)c1ccc(N3CCC3)nc1)C2 [Example 11, (R)-6-[[6-(1-Azetidinyl)-3-pyridinyl]sulfonyl]-1-(4-fluorophenyl)-4a-methoxymethyl-1,4,7,8-tetrahydro-1,2,6-triazacyclopenta[b]naphthalene]	0.5 to 1 nM	10 to 50 nM
COC[C@]12Cc3cnn(-c4ccc(F)cc4)c3C=C1CCN(S(=O)(=O)c1cncc(N3CCOCC3)c1)C2 [Example 12, (R)-1-(4-Fluorophenyl)-4a-methoxymethyl-6-(5-morpholin-4-ylpyridine-3-sulfonyl)-4,4a,5,6,7,8-hexahydro-1H-1,2,6-triazacyclopenta[b]naphthalene]	> 1 nM	> 50 nM
COC[C@]12Cc3cnn(-c4ccc(F)cc4)c3C=C1CCN(S(=O)(=O)c1cncc(N3CCC3)c1)C2 [Example 13, (R)-6-(5-Azetidin-1-ylpyridine-3-sulfonyl)-1-(4-fluorophenyl)-4a-methoxymethyl-4,4a,5,6,7,8-hexahydro-1H-1,2,6-triazacyclopenta[b]naphthalene]	< 0.5 nM	10 to 50 nM
COC[C@]12Cc3cnn(-c4ccc(F)cc4)c3C=C1CCN(S(=O)(=O)c1ccc(N3CCOCC3)nc1)C2 [Example 14, (R)-1-(4-Fluorophenyl)-4a-methoxymethyl-6-(6-morpholin-4-yl-pyridine-3-sulfonyl)-4,4a,5,6,7,8-hexahydro-1H-1,2,6-triazacyclopenta[b]naphthalene]	0.5 to 1 nM	10 to 50 nM
O=S(=O)(c1ccc(N2CCOCC2)nc1)N1CCC2=Cc3c(cnn3-c3ccc(F)cc3)C[C@]2(COC(F)F)C1 [Example 15, (R)-4a-Difluoromethoxymethyl-1-(4-fluorophenyl)-6-(6-morpholin-4-yl-pyridine-3-sulfonyl)-4,4a,5,6,7,8-hexahydro-1H-1,2,6-triazacyclopenta[b]naphthalene]	> 1 nM	10 to 50 nM
O=S(=O)(c1ccc(N2CCC2)nc1)N1CCC2=Cc3c(cnn3-c3ccc(F)cc3)C[C@]2(COC(F)F)C1 [Example 17, (R)-6-(6-Azetidin-1-ylpyridine-3-sulfonyl)-4a-difluoromethoxymethyl-1-(4-fluorophenyl)-4,4a,5,6,7,8-hexahydro-1H-1,2,6-triazacyclopenta[b]naphthalene]	> 1 nM	10 to 50 nM
O=S(=O)(c1ccc(N2CC[C@@H](O)C2)nc1)N1CCC2=Cc3c(cnn3-c3ccc(F)cc3)C[C@]2(CN2CC[C@H](O)C2)C1 [Example 46, (S)-1-{(S)-1-(4-Fluorophenyl)-6-[6-((R)-3-hydroxy-pyrrolidin-3-ol)-pyridine-3-sulfonyl]-1,4,5,6,7,8-hexahydro-1,2,6-triaza-cyclopenta[b]naphthalene-4a-ylmethyl}-pyrrolidin-3-ol]	> 1 nM	–
